Test results as given in the supplement of paper PMC10307832.

Key:
Assay in all cases: relative viability (nuclei count vs DMSO), 5 days (fraction); higher = more cells survive
ABC-1 = system: ABC-1
Method in brief: (§1)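 Five library-drug doses in √10 steps were combined with a fixed anchor-drug dose, or a single drug was given alone, by pin tool to lung cancer cell lines in 1536-well plates the day after seeding. Nuclei were stained and counted after 5 days. Relative viability is the nuclei count in treated wells over that in vehicle wells, taken as the median of duplicate plates.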

NCI-H1650 = system: NCI-H1650
Method in brief: as §1

NCI-H661 = system: NCI-H661
Method in brief: as §1

LU99A = system: LU99A
Method in brief: as §1

PC-14 = system: PC-14
Method in brief: as §1

COR-L23 = system: COR-L23
Method in brief: as §1

NCI-H727 = system: NCI-H727
Method in brief: as §1

NCI-H1437 = system: NCI-H1437
Method in brief: as §1

NCI-H1666 = system: NCI-H1666
Method in brief: as §1

COR-L 105 = system: COR-L 105
Method in brief: as §1

NCI-H838 = system: NCI-H838
Method in brief: as §1

CAL-12T = system: CAL-12T
Method in brief: as §1

NCI-H2009 = system: NCI-H2009
Method in brief: as §1

HCC-366 = system: HCC-366
Method in brief: as §1

HARA = system: HARA
Method in brief: as §1

201T = system: 201T
Method in brief: as §1

EKVX = system: EKVX
Method in brief: as §1

NCI-H441 = system: NCI-H441
Method in brief: as §1

BEN = system: BEN
Method in brief: as §1

NCI-H3122 = system: NCI-H3122
Method in brief: as §1

Work on `C=C1C(=O)O[C@@H](CCCCCCCC)[C@@H]1C(=O)O` [C-75] + CC(C)C[C@H](NC(=O)[C@H](Cc1ccccc1)NC(=O)c1cnccn1)B(O)O [Bortezomib] (partner 0.002 µM) yielded a relative viability (ABC-1; first compound 0.08 µM) of 0.295, a relative viability (ABC-1; first compound 0.253 µM) of 0.314 and a relative viability (ABC-1; first compound 0.8 µM) of 0.373. The relative viability (ABC-1; first compound 2.53 µM) was 0.178, the relative viability (ABC-1; first compound 8 µM) was 0.234 and the relative viability (NCI-H1650; first compound 0.08 µM) was 0.223. It also gave a relative viability (NCI-H1650; first compound 0.253 µM) of 0.212, a relative viability (NCI-H1650; first compound 0.8 µM) of 0.198 and a relative viability (NCI-H1650; first compound 2.53 µM) of 0.158. The relative viability (NCI-H1650; first compound 8 µM) was 0.187, the relative viability (NCI-H661; first compound 0.08 µM) was 0.696 and the relative viability (NCI-H661; first compound 0.253 µM) was 0.873. The relative viability (NCI-H661; first compound 0.8 µM) was 0.731, the relative viability (NCI-H661; first compound 2.53 µM) was 0.973 and the relative viability (NCI-H661; first compound 8 µM) was 0.655. The relative viability (LU99A; first compound 0.08 µM) was 1.1, the relative viability (LU99A; first compound 0.253 µM) was 1.03 and the relative viability (LU99A; first compound 0.8 µM) was 1.08. It also gave a relative viability (LU99A; first compound 2.53 µM) of 0.933, a relative viability (LU99A; first compound 8 µM) of 0.885 and a relative viability (PC-14; first compound 0.08 µM) of 0.853. It also gave a relative viability (PC-14; first compound 0.253 µM) of 0.969, a relative viability (PC-14; first compound 0.8 µM) of 0.94 and a relative viability (PC-14; first compound 2.53 µM) of 0.726. For the same molecule, the relative viability (PC-14; first compound 8 µM) was 0.965, the relative viability (COR-L23; first compound 0.08 µM) was 0.953 and the relative viability (COR-L23; first compound 0.253 µM) was 1.05. The relative viability (COR-L23; first compound 0.8 µM) was 0.946, the relative viability (COR-L23; first compound 2.53 µM) was 0.698 and the relative viability (COR-L23; first compound 8 µM) was 0.818. The relative viability (NCI-H727; first compound 0.08 µM) was 0.773, the relative viability (NCI-H727; first compound 0.253 µM) was 1.32 and the relative viability (NCI-H727; first compound 0.8 µM) was 0.614. It also gave a relative viability (NCI-H727; first compound 2.53 µM) of 0.582, a relative viability (NCI-H727; first compound 8 µM) of 0.99 and a relative viability (NCI-H1437; first compound 0.08 µM) of 0.572. For the same molecule, the relative viability (NCI-H1437; first compound 0.253 µM) was 0.546, the relative viability (NCI-H1437; first compound 0.8 µM) was 0.483 and the relative viability (NCI-H1437; first compound 2.53 µM) was 0.546. It also gave a relative viability (NCI-H1437; first compound 8 µM) of 0.455, a relative viability (NCI-H1666; first compound 0.08 µM) of 0.888 and a relative viability (NCI-H1666; first compound 0.253 µM) of 0.948. For the same molecule, the relative viability (NCI-H1666; first compound 0.8 µM) was 0.7, the relative viability (NCI-H1666; first compound 2.53 µM) was 0.7 and the relative viability (NCI-H1666; first compound 8 µM) was 0.641. The relative viability (COR-L 105; first compound 0.08 µM) was 0.838, the relative viability (COR-L 105; first compound 0.253 µM) was 0.627 and the relative viability (COR-L 105; first compound 0.8 µM) was 0.779. It also gave a relative viability (COR-L 105; first compound 2.53 µM) of 0.809, a relative viability (COR-L 105; first compound 8 µM) of 0.728 and a relative viability (NCI-H838; first compound 0.08 µM) of 0.66. For the same molecule, the relative viability (NCI-H838; first compound 0.253 µM) was 0.588, the relative viability (NCI-H838; first compound 0.8 µM) was 0.8 and the relative viability (NCI-H838; first compound 2.53 µM) was 0.656. The relative viability (NCI-H838; first compound 8 µM) was 0.684, the relative viability (CAL-12T; first compound 0.08 µM) was 0.949 and the relative viability (CAL-12T; first compound 0.253 µM) was 0.967. The relative viability (CAL-12T; first compound 0.8 µM) was 0.758, the relative viability (CAL-12T; first compound 2.53 µM) was 0.946 and the relative viability (CAL-12T; first compound 8 µM) was 0.928. For the same molecule, the relative viability (NCI-H2009; first compound 0.08 µM) was 1.03, the relative viability (NCI-H2009; first compound 0.253 µM) was 1.06 and the relative viability (NCI-H2009; first compound 0.8 µM) was 0.927. It also gave a relative viability (NCI-H2009; first compound 2.53 µM) of 0.826, a relative viability (NCI-H2009; first compound 8 µM) of 0.866 and a relative viability (HCC-366; first compound 0.08 µM) of 1.07. For the same molecule, the relative viability (HCC-366; first compound 0.253 µM) was 1.16, the relative viability (HCC-366; first compound 0.8 µM) was 0.973 and the relative viability (HCC-366; first compound 8 µM) was 0.941. It also gave a relative viability (HARA; first compound 0.08 µM) of 1.14, a relative viability (HARA; first compound 0.253 µM) of 1.22 and a relative viability (HARA; first compound 0.8 µM) of 1.07. It also gave a relative viability (HARA; first compound 8 µM) of 1.26, a relative viability (201T; first compound 0.08 µM) of 1.07 and a relative viability (201T; first compound 0.253 µM) of 1.24. The relative viability (201T; first compound 0.8 µM) was 1.08, the relative viability (201T; first compound 2.53 µM) was 1.15 and the relative viability (201T; first compound 8 µM) was 1.08. The relative viability (EKVX; first compound 0.08 µM) was 0.996, the relative viability (EKVX; first compound 0.253 µM) was 1.09 and the relative viability (EKVX; first compound 0.8 µM) was 1.17. The relative viability (EKVX; first compound 2.53 µM) was 0.947, the relative viability (EKVX; first compound 8 µM) was 1.01 and the relative viability (NCI-H441; first compound 0.08 µM) was 0.497. For the same molecule, the relative viability (NCI-H441; first compound 0.253 µM) was 0.259, the relative viability (NCI-H441; first compound 0.8 µM) was 0.447 and the relative viability (NCI-H441; first compound 2.53 µM) was 0.315. The relative viability (NCI-H441; first compound 8 µM) was 0.26, the relative viability (BEN; first compound 0.08 µM) was 0.847 and the relative viability (BEN; first compound 0.253 µM) was 0.868. For the same molecule, the relative viability (BEN; first compound 0.8 µM) was 0.666, the relative viability (BEN; first compound 2.53 µM) was 0.639 and the relative viability (BEN; first compound 8 µM) was 0.653. It also gave a relative viability (NCI-H3122; first compound 0.08 µM) of 1.01, a relative viability (NCI-H3122; first compound 0.253 µM) of 0.987 and a relative viability (NCI-H3122; first compound 0.8 µM) of 0.989. It also gave a relative viability (NCI-H3122; first compound 8 µM) of 1.04.
